Experimental data reported in patent publication US20100068260A1, “Methods, Compositions and Device for Directed and Controlled Heating and Release of Agents” (priority 2007, published 2010).

Columns and labels:
[1] = UV-Vis analysis of disulfide bond stability to heat and hydroxylamine; type: physicochemical; conditions: with and without hydroxylamine solution; room temperature to 90° C., 15 minutes each; FIG. 18-19
Experimental: The solution was heated for 15 minutes at each temperature and allowed to cool to room temp before the spectra were taken. ˜1 mg of DTT was added to the solution to cleave the remaining disulfide bonds.

[2] = UV-Vis detection of chromophore release on heating liposomes (DPPC, DSPE-PEG2000, SATA-DSPE, PDP-PE); type: physicochemical; conditions: negative control without hydroxylamine, heated to 90° C.; FIG. 16
Experimental: To deprotect the thiol group on the liposomes 100 μL of 0.5 M hydroxylamine with 25 mM EDTA pH 7.3 in PBS buffer were added to 50 μL of PBS buffer containing the liposomes. The mixture was gently mixed over an hour. The procedure for deprotection was taken from Pierce.
50 μL of liposomes formed by the second method were diluted into 650 μL of PBS. UV-Vis spectra were taken of PBS as a blank, the liposomes in PBS, and hydroxylamine solution in PBS all at room temperature.
The liposomes were heated to 40 to 90° C. at 10 degree intervals for 10 minutes each, upon cooling to room temperature UV-Vis spectra was taken; the spectra are shown in FIG. 15.
As a negative control, the same procedure was performed on the same concentration of liposomes and PBS without the hydroxylamine solution. After heating the negative control to 90° C. DTT, which serves to cleave any disulfide bonds present, was added to visualize the amount of PDP-PE that is present in the liposomes, as shown in FIG. 16.

SMILES | reduction of disulfide on heating [1] | reduction of PDP-PE with only heat [2]
c1ccc(SSc2ccccn2)nc1 [2,2′ dithiodipyridine, 2,2′-dithiodipyridine] | reduction is occurring | –
CCCCCCCCCCCCCCCC(=O)OC[C@H](COP(=O)(O)OCCNC(=O)CCSSc1ccccn1)OC(=O)CCCCCCCCCCCCCCC [PDP-PE, N-[3-(2-Pyridyldithio)propionyl]-1,2-dipalmitoyl-sn-glycero-3-phosphoethanolamine] | – | does not seem to be reduced
